Reference: patent publication US20020137209A1, “Methods of dissociating nongenotropic from genotropic activity of steroid receptors” (priority 2000, published 2002)
Ends that are not written are not given here.

Experiments:
[1] = system: ERK1/2; test: ERK phosphorylation in MLO-Y4 cells (Western blot); assay type: cell-based; details: for effect of inhibitor on induction of ERK phosphorylation by E2 or DHT: inhibitor 25 min, then 5 min E2 or DHT
Description: Western blot analysis. The phosphorylation status of ERK1/2 was analyzed by immunoblotting using a mouse monoclonal antibody recognizing tyrosine phosphorylated ERK1/2, or a rabbit polyclonal antibody recognizing total ERK1/2, followed by incubation with either an anti-mouse or an anti-rabbit antibody conjugated with horseradish peroxidase (Santa Cruz Biotechnology).

[2] = system: calvaria-derived murine osteoblastic cells; test: Apoptosis of calvaria-derived osteoblastic cells (trypan blue)
[3] = biological target: T1, AR (Homo sapiens, UniProt P10275); test: Etoposide-induced apoptosis in HeLa cells transfected with AR
T1 sequence (P10275 1-920): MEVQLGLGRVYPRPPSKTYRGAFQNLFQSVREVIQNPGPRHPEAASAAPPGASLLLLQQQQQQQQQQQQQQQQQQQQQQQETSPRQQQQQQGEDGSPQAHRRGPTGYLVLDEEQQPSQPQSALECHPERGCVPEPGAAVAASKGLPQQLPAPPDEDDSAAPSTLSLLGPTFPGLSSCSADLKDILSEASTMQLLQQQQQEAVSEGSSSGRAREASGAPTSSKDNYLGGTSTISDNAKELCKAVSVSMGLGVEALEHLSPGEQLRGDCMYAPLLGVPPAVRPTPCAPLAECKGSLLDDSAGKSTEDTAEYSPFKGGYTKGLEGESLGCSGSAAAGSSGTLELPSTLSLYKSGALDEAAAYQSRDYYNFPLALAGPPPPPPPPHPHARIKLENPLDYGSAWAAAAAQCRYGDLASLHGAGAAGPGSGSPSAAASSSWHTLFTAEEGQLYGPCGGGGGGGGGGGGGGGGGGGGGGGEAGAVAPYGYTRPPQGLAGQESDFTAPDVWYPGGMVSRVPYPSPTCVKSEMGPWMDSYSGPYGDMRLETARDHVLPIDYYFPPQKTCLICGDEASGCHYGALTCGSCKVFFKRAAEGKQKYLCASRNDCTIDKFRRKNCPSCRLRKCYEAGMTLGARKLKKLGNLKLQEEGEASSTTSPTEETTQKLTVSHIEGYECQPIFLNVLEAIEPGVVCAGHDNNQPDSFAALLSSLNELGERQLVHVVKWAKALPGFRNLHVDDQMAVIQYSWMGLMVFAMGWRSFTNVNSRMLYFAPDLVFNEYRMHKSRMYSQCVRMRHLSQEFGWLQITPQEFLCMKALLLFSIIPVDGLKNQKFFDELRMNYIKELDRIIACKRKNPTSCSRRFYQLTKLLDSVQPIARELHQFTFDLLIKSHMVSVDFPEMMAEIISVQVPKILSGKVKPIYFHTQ

[4] = system: osteocytic cell line MLO-Y4; test: Apoptosis of MLO-Y4 osteocytic cells (trypan blue); assay type: cell-based
[5] = biological target: T2, ERβ (Homo sapiens, UniProt Q92731); test: Etoposide-induced apoptosis in HeLa cells transfected with ERβ
T2 sequence (Q92731 whole entry, species assumed): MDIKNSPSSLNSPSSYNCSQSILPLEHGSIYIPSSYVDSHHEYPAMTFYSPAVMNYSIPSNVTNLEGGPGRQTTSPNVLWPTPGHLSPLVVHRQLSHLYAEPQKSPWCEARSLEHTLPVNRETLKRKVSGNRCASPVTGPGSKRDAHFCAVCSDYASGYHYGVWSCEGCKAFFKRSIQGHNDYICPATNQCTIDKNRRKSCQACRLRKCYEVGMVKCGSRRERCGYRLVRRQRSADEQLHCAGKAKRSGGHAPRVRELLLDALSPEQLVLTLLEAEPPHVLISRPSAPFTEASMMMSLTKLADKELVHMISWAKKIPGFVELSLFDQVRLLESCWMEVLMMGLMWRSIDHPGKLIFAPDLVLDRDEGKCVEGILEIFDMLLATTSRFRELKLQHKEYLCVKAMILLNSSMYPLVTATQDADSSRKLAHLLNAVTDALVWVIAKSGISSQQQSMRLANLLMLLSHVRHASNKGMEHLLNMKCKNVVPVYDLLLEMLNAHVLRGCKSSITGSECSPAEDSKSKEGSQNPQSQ

[6] = system: embryonic fibroblasts derived from Src−/− mice; test: Apoptosis in embryonic fibroblasts from Src−/− mice; assay type: cell-based; details: ER- and AR-expressing, also lack yes and Fyn
Description: Cell lysates were obtained and proteins were analyzed by Western blot analysis using anti-ERK1/2 or anti-phospho-ERK1/2 (p-ERK1/2) antibodies. […] After 30 min, etoposide was added and apoptosis was assayed 6 hours later as in FIG. 1B. […] RT-PCR was performed as described in the experimental procedures. C-E. HeLa cells were transfected with Nuc-EGFP and with expression vectors encoding the full length ERα or its E domain, or the AR alone (C, left panel) or together with a dn MEK (C, right panel); a Src mutant lacking the kinase activity (Src K^−), a Src mutant lacking the SH2 domain (Src ΔSH2), or a Src mutant lacking the SH3 domain (Src ΔSH3) (D); or with ERα together with wt Shc, or the dn Shc mutants Y239F/Y240F/Y317F (Shc FFF), Y317F (Shc YYF) or Y239F/Y240F (Shc FFY) (E). Bars represent means±SD of triplicate determinations. *p<0.05 versus cells cultured without steroids, by ANOVA.
Quantification of apoptotic cells in vitro. Apoptotic cells were quantified either by trypan blue staining or by direct visualization of changes in nuclear morphology (in the case of transfected HeLa cells), as previously described (Plotkin,L. et al. (1999). J.
RT-PCR analysis of the ERs and AR in embryonic fibroblasts. […]

[7] = system: HeLa cells transfected with the vector without receptor (empty vector, ev); test: Etoposide-induced apoptosis in HeLa cells transfected with empty vector; details: 10^−12M to 10^−8 M
[8] = biological target: T2, ERβ; test: IL-6-luc transcription in HeLa cells transfected with ERβ; assay type: cell-based; design: expressed in transfected cells; host or cells: HeLa; details: ERβ carrying HeLa cells, 10^−8 M E2
Source text: (§1) A. HeLa cells were transiently transfected with the ERα expression vector alone or together with a vector carrying a fusion of the α-II peptide with the GAL4 DNA binding domain driven by the SV40 promoter. In addition, cells were transfected with ERE-luc or IL-6-luc for the transcription studies; or with EGFP-nuc for the apoptosis experiments. […] B. HeLa cells were transfected with ERα or ERβ alone or together with expression vectors carrying 2X293 or 2XF6 peptides. […] C. HeLa cells were transfected with a vector carrying the GRIP peptide alone or together with ERα.
(§2) DNA constructs. […] Bio. […] The sequence for peptide αII is […] (SEQ ID NO.: 1). […] (SEQ ID NO.: 3). The sequence for GRIP is […] […] […] (SEQ ID NO.: 4). […] The forward primer contained the restriction site for SalI and the ERα Kozak sequence and the reverse primer contained the BamH1 restriction site. Amplified PCR products were subcloned into the SalI/BamH1 restriction site of pCMV.
(§3) Transient transfections. HeLa cells were plated at 5×10^4/cm^2 and after 16-24 hours were transfected with a total amount of 3 μg of DNA using Lipofectamine (Life Technologies Inc). Following a 4-6 hours of incubation, the transfection mix was replaced with fresh medium containing 10% charcoal-stripped serum and treatments were initiated.

[9] = biological target: T3, ERα (Homo sapiens, UniProt P03372); test: Etoposide-induced apoptosis in HeLa cells transfected with ERα; details: peptide co-transfected, 10^−8 M E2
T3 sequence (P03372 1-595): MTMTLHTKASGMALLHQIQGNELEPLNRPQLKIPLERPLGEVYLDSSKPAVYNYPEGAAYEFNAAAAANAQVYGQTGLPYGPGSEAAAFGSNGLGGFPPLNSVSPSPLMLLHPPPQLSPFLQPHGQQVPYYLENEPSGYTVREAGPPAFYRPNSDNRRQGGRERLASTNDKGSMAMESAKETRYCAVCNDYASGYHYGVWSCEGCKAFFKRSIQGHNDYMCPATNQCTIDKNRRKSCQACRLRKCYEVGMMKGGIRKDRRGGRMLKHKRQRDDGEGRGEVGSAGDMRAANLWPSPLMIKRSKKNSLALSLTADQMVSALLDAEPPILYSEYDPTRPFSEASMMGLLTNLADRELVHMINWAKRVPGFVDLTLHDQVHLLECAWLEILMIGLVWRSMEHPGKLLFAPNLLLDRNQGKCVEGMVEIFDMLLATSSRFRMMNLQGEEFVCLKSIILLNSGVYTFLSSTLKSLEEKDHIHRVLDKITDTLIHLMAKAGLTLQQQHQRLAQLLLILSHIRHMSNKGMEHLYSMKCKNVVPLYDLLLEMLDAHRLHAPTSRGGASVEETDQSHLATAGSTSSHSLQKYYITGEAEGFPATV

[10] = biological target: T2, ERβ; test: ERE-luc transcription in HeLa cells transfected with ERβ; assay type: cell-based; design: expressed in transfected cells; host or cells: HeLa; details: ERβ carrying HeLa cells, 10^−8 M E2
Source text: as §1, §2, §3

N#CC(=C(/N)Sc1ccccc1N)/C(C#N)=C(/N)Sc1ccccc1N [UO 126]
effect of inhibitor on induction of ERK phosphorylation by E2 or DHT [1]: blocked

C[C@]12CC[C@@H]3c4ccc(O)cc4C[C@@H](CCCCCCCCC[S+]([O-])CCCC(F)(F)C(F)(F)F)[C@H]3[C@@H]1CC[C@@H]2O (some centres unmarked) [ICI 182,780]
effect of antagonist on the anti-apoptotic effect of DHT ([2]; antagonist pre-treatment 30 min, 10^−8 M DHT, etoposide): blocked
effect of antagonist on the anti-apoptotic effect of E2 ([2]; antagonist pre-treatment 30 min, 10^−8 M E2, etoposide): blocked
effect of antagonist/inhibitor on the anti-apoptotic effect of E2 or DHT [3]: abrogated

C[C@]12CCC(=O)C[C@@H]1CC[C@@H]1[C@@H]2CC[C@]2(C)[C@@H](O)CC[C@@H]12 [DHT, 5β-dihydrotestosterone]
time of maximal effect on phosphorylation of ERKs ([1]; MLO-Y4 cells): 5 min
prevention of apoptosis induced by etoposide, dexamethasone or TNFα ([4]; 10^−8 M steroid): prevented apoptosis
dose-dependent inhibition of etoposide-induced apoptosis compared with calvaria cells ([4]; not shown): identical results
prevention of etoposide-induced apoptosis ([5]; HeLa transfected with ERβ): prevented apoptosis in a dose-dependent manner
prevention of apoptosis induced by etoposide, dexamethasone or TNFα ([2]; 10^−8 M steroid): prevented apoptosis
anti-apoptotic effect in Src−/− fibroblasts (unlike Src+/+ wild type controls) [6]: unresponsive
effect on etoposide-induced apoptosis [7]: Neither E2 nor DHT (10^−12M to 10^−8 M) had an effect

Cc1ccc(-c2nn(C(C)(C)C)c3ncnc(N)c23)cc1 [PP1]
effect of inhibitor on induction of ERK phosphorylation by E2 or DHT [1]: blocked
effect of inhibitor on the anti-apoptotic effect of E2 and DHT ([4]; inhibitor 30 min prior to E2 or DHT, etoposide 6 hours): completely abrogated

293: ERβ-specific peptide SSIKDFPNLISLLSR (SEQ ID NO.: 2); two copies expressed fused to GAL4 DNA binding domain (also: two copies fused to GAL4 DNA binding domain) [compound 293]
effect of peptide on E2 effect on IL-6-Luc transcription [8]: blocked
effect of peptide on the anti-apoptotic activity of ERβ (E2) ([5]; peptide co-transfected, 10^−8 M E2): did block
effect of peptide on the anti-apoptotic activity of ERα (E2) [9]: did not have an effect
effect of peptide on E2-induced ERE-Luc transcription [10]: blocked
